Measured values from publication PMC13197777, “Distinct 2-phenylimidazo[1,2-a]pyridine derivatives that inhibit breast cancer cell proliferation identified as AHR ligands” (iScience, 2026).
Like-named read-outs stand apart in the source and are kept apart here.

Tests used:
MCF-7 luc = experiment: Clonogenic assay (clonal expansion), MCF-7 cells expressing wild-type ER; type: cell-based; settings: Homo sapiens, MCF7, 336 h
Description: (§1) Cells were seeded at a density of 1–2×10^3 cells/well in a 6-well plate and treated with increasing concentrations of the X compounds for 14–21 days. Medium and compounds were renewed every 7 days. The experiments were terminated by fixing the cells with methanol and the colonies formed were visualized after staining with 0.5% crystal violet (w/v) in 20% methanol (v/v). Plates were photographed and the area covered by the colonies was calculated using the ColonyArea Plugin for Fiji (RRID:SCR_003070).[20]

ERα in MCF-7 cells = experiment: Immunoblot of ERα in MCF-7 cells; type: cell-based, human; settings: MCF-7, 48 h, increasing concentrations up to 1 μM
Description: To determine the relative expression of proteins by Western blotting, cells were first washed with ice-cold phosphate buffered saline (PBS). Subsequently, they were lysed in ice-cold NP40 lysis buffer (1%NP-40, 50 mM Tris-HCl, pH 8.0, 150 mM NaCl, 5 mM Ethylenediaminetetraacetic acid [EDTA], 1 mM PMSF) on ice. DNA was degraded by sonification (five pulses at 50 amplitudes). Protein concentration was determined, and equal amounts of protein were separated on a 9% SDS-PAGE gel. The proteins were transferred onto nitrocellulose membrane by a standard Western blotting protocol and the membranes were incubated with the following antibodies: ERα (Santa Cruz Biotechnology, sc-8002, RRID: AB_627558) and PCNA (Santa Cruz Biotechnology, sc-56, RRID: AB_628110), followed by incubation with HRP labeled Goat anti-mouse Immunoglobulins (DAKO, P0447, RRID: AB_2617137).

MCF-7 luc D538G = experiment: Clonogenic assay (clonal expansion), MCF-7 cells with D538G ER mutation; type: cell-based; settings: Homo sapiens, MCF7, 336 h
Description: as §1

ERα full-length = molecular target: T1, ERα full-length (Homo sapiens, UniProt P03372); experiment: PolarScreen ERα Competitor Assay (fluorescence polarization); type: binding
T1 construct: 34 nM ERα full-length and 1.4 nM Fluormone EL Red were incubated; purchased ThermoFisher A15884
T1 sequence (P03372 1-595): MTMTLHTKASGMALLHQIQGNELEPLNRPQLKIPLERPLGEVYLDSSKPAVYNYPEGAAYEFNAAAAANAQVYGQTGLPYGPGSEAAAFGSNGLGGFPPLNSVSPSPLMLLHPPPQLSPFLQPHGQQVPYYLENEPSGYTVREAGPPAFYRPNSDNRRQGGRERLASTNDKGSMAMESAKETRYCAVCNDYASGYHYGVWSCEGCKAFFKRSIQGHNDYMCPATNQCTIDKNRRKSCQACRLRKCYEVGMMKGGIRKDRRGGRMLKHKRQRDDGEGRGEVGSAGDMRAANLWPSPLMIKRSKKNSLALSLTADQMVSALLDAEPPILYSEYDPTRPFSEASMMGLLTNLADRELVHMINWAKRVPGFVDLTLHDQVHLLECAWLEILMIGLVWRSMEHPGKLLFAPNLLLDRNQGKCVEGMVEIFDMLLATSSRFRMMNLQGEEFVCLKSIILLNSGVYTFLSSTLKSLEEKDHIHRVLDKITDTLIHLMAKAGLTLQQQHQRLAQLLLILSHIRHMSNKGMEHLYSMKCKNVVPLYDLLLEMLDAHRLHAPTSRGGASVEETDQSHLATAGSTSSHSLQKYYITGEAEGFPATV
Description: The PolarScreen Estrogen Receptor-Alpha Competitor Assay, Red (ThermoFisher, A15884) was used to determine if the X compounds bind to ERα. The assay was performed according to the manufacturer’s protocol.

AHR-Hsp90-XAP2 = molecular target: T2, AHR-Hsp90-XAP2 (Homo sapiens, UniProt P35869); experiment: Thermal stability measurements (nano-DSF); type: binding; settings: 2.5 μM protein, 12.5 μM compound
T2 construct: made in house
T2 sequence (P35869 11-437 limits assumed): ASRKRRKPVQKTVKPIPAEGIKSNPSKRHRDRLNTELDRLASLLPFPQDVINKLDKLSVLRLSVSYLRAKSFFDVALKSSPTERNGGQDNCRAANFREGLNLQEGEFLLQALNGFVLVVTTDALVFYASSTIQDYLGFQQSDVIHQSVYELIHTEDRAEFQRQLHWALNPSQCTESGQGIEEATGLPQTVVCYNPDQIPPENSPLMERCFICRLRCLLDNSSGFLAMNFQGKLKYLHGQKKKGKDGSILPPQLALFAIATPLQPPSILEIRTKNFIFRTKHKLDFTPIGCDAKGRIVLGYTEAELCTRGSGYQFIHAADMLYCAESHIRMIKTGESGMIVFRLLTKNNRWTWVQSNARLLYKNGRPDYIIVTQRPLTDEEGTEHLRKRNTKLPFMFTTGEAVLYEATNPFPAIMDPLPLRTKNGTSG
T2 sequence (P08238 whole entry partner): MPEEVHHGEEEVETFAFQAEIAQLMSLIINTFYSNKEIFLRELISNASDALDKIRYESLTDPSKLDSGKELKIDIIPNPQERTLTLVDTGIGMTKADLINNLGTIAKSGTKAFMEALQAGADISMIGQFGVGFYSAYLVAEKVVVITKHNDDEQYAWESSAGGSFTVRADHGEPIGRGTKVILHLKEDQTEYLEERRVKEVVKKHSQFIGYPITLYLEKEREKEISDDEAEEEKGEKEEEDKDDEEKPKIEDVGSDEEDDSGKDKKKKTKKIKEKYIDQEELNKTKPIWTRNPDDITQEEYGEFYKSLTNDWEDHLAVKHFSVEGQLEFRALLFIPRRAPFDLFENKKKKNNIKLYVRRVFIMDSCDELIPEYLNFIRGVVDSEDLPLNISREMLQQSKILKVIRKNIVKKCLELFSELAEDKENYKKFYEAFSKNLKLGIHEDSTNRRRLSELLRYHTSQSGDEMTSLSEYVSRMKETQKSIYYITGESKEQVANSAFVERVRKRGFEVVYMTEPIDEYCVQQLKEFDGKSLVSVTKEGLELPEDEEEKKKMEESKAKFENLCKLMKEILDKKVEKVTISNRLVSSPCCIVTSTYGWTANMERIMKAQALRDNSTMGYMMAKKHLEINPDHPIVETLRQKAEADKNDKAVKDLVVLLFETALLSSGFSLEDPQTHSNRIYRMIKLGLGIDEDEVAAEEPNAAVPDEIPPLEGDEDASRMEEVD
T2 sequence (O00170 whole entry partner): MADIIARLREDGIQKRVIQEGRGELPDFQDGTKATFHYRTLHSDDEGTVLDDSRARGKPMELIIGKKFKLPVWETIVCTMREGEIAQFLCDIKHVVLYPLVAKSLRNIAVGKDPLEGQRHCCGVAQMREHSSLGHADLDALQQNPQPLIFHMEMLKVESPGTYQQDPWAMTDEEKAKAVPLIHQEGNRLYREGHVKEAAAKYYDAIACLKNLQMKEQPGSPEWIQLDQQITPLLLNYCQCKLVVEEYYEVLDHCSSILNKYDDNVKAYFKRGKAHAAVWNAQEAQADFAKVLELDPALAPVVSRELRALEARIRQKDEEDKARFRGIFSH
Description: Thermal denaturation experiments of AHR complexes in the presence of compounds were performed using a Tycho NT.6 instrument (NanoTemper Technologies). Protein samples were prepared as previously described[67] and subsequently diluted in the buffer containing 20 mM Bis-Tris–HCl pH 7.0, 50 mM NaCl, 10 mM KCl, 10 mM MgCl2, 20 mM Na2MoO4 and 2 mM β-mercaptoethanol to a final protein concentration of 2.5 μM. Compound stock solutions were prepared at 20 mM in DMSO and added to the protein samples to yield a final concentration of 12.5 μM. For control measurements, DMSO was added to a final concentration of 5% (v/v). Following ligand or DMSO addition, the samples were gently mixed and incubated at room temperature for 10 min to allow equilibration. Thermal denaturation profiles were acquired over a temperature range of 35°C–95°C, with a heating rate of 1 °C per min. Fluorescence was monitored at emission wavelengths of 330 nm and 350 nm, and the data were analyzed as the first derivative of the fluorescence ratio (F330/F350) as a function of temperature. All experiments were performed in triplicate, and data were analyzed using the Tycho NT.6 software (NanoTemper Technologies) according to the manufacturer’s recommendations.

[1] = Figure 1B, MCF-7 luc, absence of E2, 14 days
[2] = Figure 1C, MCF-7 luc + 10 nM E2, 14 days
[3] = read-out: IC50 clonal expansion, Figure 1B, MCF-7 luc D538G, absence of E2, 14 days
[4] = read-out: IC50 clonal expansion, Figure 1C, MCF-7 luc D538G + 10 nM E2, 14 days

Question: `Fc1ccc(-c2cn3cc(C(F)(F)F)cc(Cl)c3n2)cc1` [X15695] was tested. Which IC50 (MCF-7 luc; [1]) did it give?
Answer: 2.45 nM

Question: What about the IC50 (MCF-7 luc; [2]) of the same compound?
Answer: 7.96 nM

Question: And the IC50 (MCF-7 luc; Figure 1D, MCF-7 luc, absence of E2, 14 days)?
Answer: 2.45 nM

Question: What about the IC50 (MCF-7 luc; Figure 1E, MCF-7 luc + 10 nM E2, 14 days) of the same compound?
Answer: 7.96 nM

Question: And the “ERα destabilization (immunoblot)” value (ERα in MCF-7 cells)?
Answer: most proficient in destabilizing ERα

Question: And the IC50 (MCF-7 luc D538G; [3])?
Answer: 11.4 nM

Question: What about the IC50 (MCF-7 luc D538G; [4]) of the same compound?
Answer: 5.34 nM

Question: What about the IC50 (MCF-7 luc D538G; read-out: IC50 clonal expansion, Figure 1D, MCF-7 luc D538G, absence of E2, 14 days) of the same compound?
Answer: 11.4 nM

Question: And the IC50 (MCF-7 luc D538G; read-out: IC50 clonal expansion, Figure 1E, MCF-7 luc D538G + 10 nM E2, 14 days)?
Answer: 5.34 nM

Question: What about the “displacement of the Fluormone tracer from ERα” value (ERα full-length) of the same compound?
Answer: did not

Question: What about the “thermal stabilization of AHR (nano-DSF)” value (AHR-Hsp90-XAP2) of the same compound?
Answer: bona fide AHR ligands

Question: What does the source list for `Cc1cc(Cl)c2nc(-c3ccc(F)cc3)cn2c1` [X19724]?
Answer: IC50 (MCF-7 luc; [1]): 7.41 nM; IC50 (MCF-7 luc; [2]): 15.2 nM; ERα destabilization (immunoblot) (ERα in MCF-7 cells): most proficient in destabilizing ERα; IC50 (MCF-7 luc D538G; [3]): 324 nM; IC50 (MCF-7 luc D538G; [4]): 31.6 nM; displacement of the Fluormone tracer from ERα (ERα full-length): did not; thermal stabilization of AHR (nano-DSF) (AHR-Hsp90-XAP2): bona fide AHR ligands

Question: What does the source list for `Cc1cc(Cl)c2nc(-c3ccccc3)cn2c1` [X19728]?
Answer: IC50 (MCF-7 luc; [2]): 10.3 nM; ERα destabilization (immunoblot) (ERα in MCF-7 cells): no significant ERα destabilization; IC50 (MCF-7 luc D538G; [3]): 74.4 nM; IC50 (MCF-7 luc D538G; [4]): 48 nM; displacement of the Fluormone tracer from ERα (ERα full-length): did not; thermal stabilization of AHR (nano-DSF) (AHR-Hsp90-XAP2): bona fide AHR ligands
